Reference: PMC10208956, “Microbial peptides activate tumour-infiltrating lymphocytes in glioblastoma” (Nature, 2023)

What was measured:
[1] = test system: bulk TILs (patient 1635WI); assay: Cytokine and chemokine secretion of bulk TILs stimulated with IPdBPs; type: cell-based, human; set-up: key to CD40 Ligand / Flt-3 Ligand / GM-CSF / Granzyme B / IFN-α / IFN-γ / IL-1rα / IL-1α / IL-1β / IL-2 / IL-3 / IL-4 / IL-5 / IL-6 / IL-7 / IL-10 / IL-12p70 / IL-13 / IL-15 / IL-17A / IL-33 / TNF-α / RANTES: pg/mL, negative-control amount subtracted; CXCL2/GROβ / CXCL10/IP-10 / CCL2/MCP-1 / CCL3/MIP-1α / CCL4/MIP-1β: unit not given beside the values; details: secretion by bulk TILs after peptide stimulation; sheet 1e
Description: Fig. 1 Elution of HLA class II-presented bacterial peptides from 19 glioblastomas and the stimulatory effect of IPdBPs on bulk TILs. a, Schematic of the immunopeptidome analyses of glioblastoma tissue, from which eluted peptides were annotated using the UniProt bacteria database (1). TILs or peripheral memory T cells were stimulated with IPdBPs (2 and 3). LC–MS, liquid chromatography–mass spectrometry; PBMC, peripheral blood mononuclear cell. The images in panel a were created using BioRender (https://biorender.com). b, Number of unique IPdBPs in patients with glioblastoma (n = 19) (data from patient 1635WI contains both primary and recurrent tumours together), with 344 unique IPdBPs identified (left). These peptides originated from 255 and 199 unique proteins and bacteria, respectively (3 technical replicates). […] As a control, peptidome data were also annotated using human protein database to identify eluted self-peptides. As shown, most of HLA class II-bound peptides are self-(human) peptides. IPdBPs of primary (bottom left, n = 18) and recurrent (bottom right, n = 23) tumours were separately annotated to their source bacteria at the phylum level. d, Bulk TILs (patient 1635WI) were stimulated with IPdBPs (See Supplementary Table 8), each in five replicate wells, and proliferation was measured after 5 days via ^3H-thymidine incorporation. […] The data are expressed as the mean value of all wells ± s.e.m. SIN3A* peptide was used as a positive control as TILs recognize this tumour antigen. T cells with APCs without any stimuli were used as a negative control. e, Heatmap of cytokine and chemokine secretion of TILs stimulated with three IPdBPs, which weakly stimulated proliferation. The secretion of each cytokine and chemokine was calculated by subtracting the corresponding cytokine and chemokine amount (pg ml^−1) of the negative control. TILs with APCs without any stimuli were used as a negative control. Also see Extended Data Fig. 1. Source data
(§1) Supernatants from each experiment were harvested a day before adding thymidine and frozen at −20 °C. Cytokines were measured using ELISA for human IFNγ ELISA MAX (BioLegend), human GM-CSF DuoSet ELISA (R&D Systems) and bead-based assays. A Synergy H1 hybrid multi-mode reader (Agilent) was used to measure the absorbance. The LEGENDplex Multi-analyte Flow Assay kit (BioLegend) is a 13-plex human TH cytokine panel, which includes IFNγ, TNF, IL-2, IL-4, IL-5, IL-6, IL-9, IL-10, IL-13, IL-17A, IL-17F, IL-21 and IL-22. […] LSR Fortessa Flow Cytometer (BD Biosciences) was used to measure cytokines, and data were analysed using FlowJo (Tree Star). The Human XL Cytokine Luminex Performance Assay Fixed Panel (R&D Systems) contains 45 analytes covering a broad range of various chemokines and cytokines.

TCC2D3 = details: 3 h
[2] = test system: sorted CD4+ PE and FITC TCRVβ+ TILs; assay: Proliferation of TCRBV-sorted CD4+ TILs (without TCRBV6.1 and TCRBV6.2); type: cell-based, human; details: sheet 6b
Description: TILs expressing specific TCRBVs were isolated from bulk TILs using a panel of 22 fluorescently labelled TCRBV antibodies that detect 27 different TCRBVs. Twelve TCRBV antibodies were labelled with PE and 10 with FITC (Beckman Coulter). […] After another wash, cells were stained with CD4 (1:100) (APC anti-human CD4, eBioscience), CD8 (1:100) (Pacific blue anti-human CD8, BioLegend), TCRBV-PE (1:25) (Beckman Coulter) and TCRBV-FITC (1:25) (Beckman Coulter) antibodies (Supplementary Table 12) for 30 min. Finally, cells were sorted, seeded at 5 × 10^4 cells per well in T cell medium without h-IL-2 and rested for 1 day before stimulation with 2 × 10^5 cells per well of irradiated autologous PBMCs (45 Gy) and peptide (10 µM).
Two populations of CD4^+ PE-TCRVβ^+ and CD4^+ FITC-TCRVβ^+ were sorted and later mixed together. […] Specific amount of each cytokine/chemokine (pg/ml) was calculated by subtracting the cytokines in the negative control cultures (no peptide control). Source data

TCC75 = assay: Cytokine/chemokine secretion of TCC75; type: cell-based, human; details: 3 days; Extended Data Fig. 5e
TCC88 = assay: Cytokine and chemokine secretion of TCC88 after peptide stimulation; type: cell-based, human; details: TCC88 supernatant after peptide stimulation; no peptide control subtracted; Fig. 3e
Description: Fig. 3 Bacteria-derived and microbiota-derived peptides can stimulate TCC88 as well as the tumour antigen. a, Peptides with the highest predicted stimulatory scores were identified by searching various databases (see Methods). Numbers of unique 10-mer peptides within each database, synthesized peptides, TCC88 stimulatory peptides and the corresponding percentage of stimulatory peptides within each database are shown. […] Cytokine and chemokine secretion of TCC88 was examined and compared upon stimulation with these three different antigens. A specific amount of each cytokine and chemokine (pg ml^−1) was calculated by subtracting the cytokines in the negative control cultures (no peptide control). f, Cytotoxicity of TCC88 against the autologous tumour cell line after stimulation with 2 µM of SIN3A* and HGM3 (data represent the mean percentage of two replicate wells). E:T, effector to target. g, TCC88 was tested with HGM3 (10 µM) or SIN3A* (10 µM) peptides or both together (each 10 µM), and ^3H-thymidine incorporation was measured after 3 days (data represent the mean SI value of three replicate wells ± s.e.m.). Also see Extended Data Figs. 3 and 4. Source data
as §1

Substance AGPVVAAAVILKEDC [Peptidome.Bac 7] has a CCL2/MCP-1 [1] of 11.43, a CCL3/MIP-1α [1] of 1 and a CCL4/MIP-1β [1] of 0. The CCL11/Eotaxin [1] was 0, the CCL19/MIP-3β [1] was 2.91 and the CCL20/MIP-3α [1] was 3.7. For the same substance, the “CD40 Ligand” value [1] was 994.39, the CXCL1/GROα [1] was 4.06 and the CXCL2/GROβ [1] was 18.18. For the same substance, the CXCL8/IL-8 [1] was 0, the CXCL10/IP-10 [1] was 68.01 and the “Flt-3 Ligand” value [1] was 8.98. For the same substance, the GM-CSF [1] was 20.54, the “Granzyme B” value [1] was 0 and the IFN-α [1] was 0. The IFN-γ [1] was 18.67, the IL-1rα [1] was 382.82 and the IL-1α [1] was 0. The IL-1β [1] was 0, the IL-2 [1] was 0 and the IL-3 [1] was 10.62. The IL-4 [1] was 0, the IL-5 [1] was 0 and the IL-6 [1] was 16.87. For the same substance, the IL-7 [1] was 1.18, the IL-10 [1] was 11.57 and the IL-12p70 [1] was 2.8. It also gave an IL-13 [1] of 7.47, an IL-15 [1] of 0.56 and an IL-17A [1] of 0. It also gave an IL-17E/IL-25 [1] of 0, an IL-33 [1] of 0 and an RANTES [1] of 0. It also gave a TNF-α [1] of 9.2.
For Ac-AVVTQPDK-NH2 [Pep-bac9], the “SI: TCC2D3” value (TCC2D3) was 2.5.
With Ac-KEDMSVPLIKSIRK-NH2 [Pep-bac10] the “SI: TCC2D3” value (TCC2D3) was 2.2.
In the case of Ac-SNGDLDAIVVARAGLA-NH2 [Pep-bac16], the “SI: TCC2D3” value (TCC2D3) is reported as 2.2.
Ac-VFDFNHSAIK-NH2 [HGM62] was tested, and the “Proliferation (SI) of sorted CD4+ TILs” value ([2]; replicate 1) was 1.423, the “Proliferation (SI) of sorted CD4+ TILs” value ([2]; replicate 2) was 1.043 and the “Proliferation (SI) of sorted CD4+ TILs” value ([2]; replicate 3) was 2.568.
With Ac-VWEFNHSLHP-NH2 [HGM27] the “Proliferation (SI) of sorted CD4+ TILs” value ([2]; replicate 1) was 2.099, the “Proliferation (SI) of sorted CD4+ TILs” value ([2]; replicate 2) was 2.919 and the “Proliferation (SI) of sorted CD4+ TILs” value ([2]; replicate 3) was 2.416. The “cytokine and chemokine profile of TCC75 (in words)” value (TCC75) was “secretes pro-inflammatory cytokines”.
“LIVFNHNCLK [HB84, UniProt bacteria database peptide]” was tested, and the CCL20/MIP-3α (TCC88) was 8.75 pg/mL, the “CD40 Ligand” value (TCC88) was 1473.06 pg/mL and the CXCL1/GROα (TCC88) was 73.57 pg/mL. It also gave a CXCL2/GROβ (TCC88) of 49.19 pg/mL, a CXCL8/IL-8 (TCC88) of 0 pg/mL and a CXCL10/IP-10 (TCC88) of 104.46 pg/mL. For the same substance, the “Flt-3 Ligand” value (TCC88) was 100.29 pg/mL, the Fractalkine (TCC88) was 347.74 pg/mL and the GM-CSF (TCC88) was 5082.78 pg/mL. For the same substance, the “Granzyme B” value (TCC88) was 2479.01 pg/mL, the IFN-α (TCC88) was 2.75 pg/mL and the IFN-γ (TCC88) was 910.88 pg/mL. For the same substance, the IL-1rα (TCC88) was 520.19 pg/mL, the IL-1α (TCC88) was 12.29 pg/mL and the IL-1β (TCC88) was 17.01 pg/mL. The IL-2 (TCC88) was 167.02 pg/mL, the IL-3 (TCC88) was 131.91 pg/mL and the IL-4 (TCC88) was 71.31 pg/mL. The IL-5 (TCC88) was 29.89 pg/mL, the IL-6 (TCC88) was 102.19 pg/mL and the IL-7 (TCC88) was 0.74 pg/mL. For the same substance, the IL-10 (TCC88) was 2358.6 pg/mL, the IL-12p70 (TCC88) was 19.71 pg/mL and the IL-13 (TCC88) was 1338.92 pg/mL. For the same substance, the IL-15 (TCC88) was 2.33 pg/mL, the IL-17A (TCC88) was 1.97 pg/mL and the IL-17E/IL-25 (TCC88) was 0 pg/mL. The IL-33 (TCC88) was 15.02 pg/mL and the TNF-α (TCC88) was 3267.52 pg/mL.
